{"source": "ChEMBL document CHEMBL1153866", "about": "“Design, synthesis and evaluation of galanthamine derivatives as acetylcholinesterase inhibitors” (Eur J Med Chem, 2009)", "key": {"Acetylcholinesterase": {"molecular_target": "T1, Acetylcholinesterase (Rattus norvegicus, UniProt P37136)", "T1 sequence (P37136 whole entry)": "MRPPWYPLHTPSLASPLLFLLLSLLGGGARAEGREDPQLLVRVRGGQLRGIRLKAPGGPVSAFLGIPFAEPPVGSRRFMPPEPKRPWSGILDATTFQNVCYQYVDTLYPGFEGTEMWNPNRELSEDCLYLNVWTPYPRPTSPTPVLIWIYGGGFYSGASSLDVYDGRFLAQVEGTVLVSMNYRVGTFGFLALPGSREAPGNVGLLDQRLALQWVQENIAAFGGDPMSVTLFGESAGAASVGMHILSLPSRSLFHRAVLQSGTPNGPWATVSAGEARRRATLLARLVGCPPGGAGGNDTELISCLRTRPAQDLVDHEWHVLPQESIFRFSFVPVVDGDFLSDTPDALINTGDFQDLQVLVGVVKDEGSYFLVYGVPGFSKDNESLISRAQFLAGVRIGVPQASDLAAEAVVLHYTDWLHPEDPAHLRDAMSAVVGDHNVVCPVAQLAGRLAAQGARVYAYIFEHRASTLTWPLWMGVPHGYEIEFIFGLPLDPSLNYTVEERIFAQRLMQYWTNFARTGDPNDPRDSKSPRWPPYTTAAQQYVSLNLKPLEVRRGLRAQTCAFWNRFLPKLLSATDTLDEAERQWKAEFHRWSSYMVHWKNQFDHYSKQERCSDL", "assay": "Inhibition of AChE from rat cortex homogenate by Ellmans method"}, "Butyrylcholinesterase": {"molecular_target": "Butyrylcholinesterase (Rattus norvegicus, UniProt Q9JKC1)", "sequence (Q9JKC1 whole entry)": "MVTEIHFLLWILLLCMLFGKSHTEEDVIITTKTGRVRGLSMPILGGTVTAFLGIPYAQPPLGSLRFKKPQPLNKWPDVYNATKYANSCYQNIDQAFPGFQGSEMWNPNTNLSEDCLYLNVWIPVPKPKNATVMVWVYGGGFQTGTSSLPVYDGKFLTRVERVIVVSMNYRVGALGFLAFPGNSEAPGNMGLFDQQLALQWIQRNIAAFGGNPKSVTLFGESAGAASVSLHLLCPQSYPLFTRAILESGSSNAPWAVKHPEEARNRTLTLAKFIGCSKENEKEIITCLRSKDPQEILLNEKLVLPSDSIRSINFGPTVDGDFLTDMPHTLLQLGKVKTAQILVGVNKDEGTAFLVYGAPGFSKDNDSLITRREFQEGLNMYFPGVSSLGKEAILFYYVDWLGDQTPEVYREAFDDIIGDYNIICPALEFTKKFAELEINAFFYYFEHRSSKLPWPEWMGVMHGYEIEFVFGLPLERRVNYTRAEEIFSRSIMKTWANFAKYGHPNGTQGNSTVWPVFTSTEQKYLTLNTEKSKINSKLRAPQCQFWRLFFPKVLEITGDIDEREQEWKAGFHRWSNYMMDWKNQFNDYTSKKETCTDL", "assay": "Inhibition of BChE from rat serum by Ellmans method", "assay_type": "cell-free"}}, "data": [{"smiles": "COc1ccc2c3c1O[C@H]1C[C@@H](O)C=C[C@@]31CCN(CCCCOc1ccc(CN3CCOCC3)cc1)C2", "values": [{"measurement": "IC50", "setting": "Acetylcholinesterase", "value": 99.1, "unit": "nM"}, {"measurement": "IC50", "setting": "Butyrylcholinesterase", "value": 3300, "unit": "nM"}]}, {"smiles": "COc1ccc2c3c1O[C@H]1C[C@@H](O)C=C[C@@]31CCN(CCCCCCOC1CCN(Cc3ccccc3)CC1)C2", "values": [{"measurement": "IC50", "setting": "Acetylcholinesterase", "value": 222, "unit": "nM"}, {"measurement": "IC50", "setting": "Butyrylcholinesterase", "value": 5500, "unit": "nM"}]}, {"smiles": "COc1ccc2c3c1O[C@H]1C[C@@H](O)C=C[C@@]31CCN(CCCOc1ccc(CN3CCCCC3)cc1)C2", "values": [{"measurement": "IC50", "setting": "Acetylcholinesterase", "value": 18, "unit": "nM"}, {"measurement": "IC50", "setting": "Butyrylcholinesterase", "value": 24000, "unit": "nM"}]}, {"smiles": "COc1ccc2c3c1O[C@H]1C[C@@H](O)C=C[C@@]31CCN(CCCCCCCCOc1ccc(CN3CCCCC3)cc1)C2", "values": [{"measurement": "IC50", "setting": "Acetylcholinesterase", "value": 34.7, "unit": "nM"}, {"measurement": "IC50", "setting": "Butyrylcholinesterase", "value": 53000, "unit": "nM"}]}, {"smiles": "COc1ccc2c3c1O[C@H]1C[C@@H](O)C=C[C@@]31CCN(CCCCOc1ccc(CN3CCCCC3)cc1)C2", "values": [{"measurement": "IC50", "setting": "Acetylcholinesterase", "value": 12.4, "unit": "nM"}, {"measurement": "IC50", "setting": "Butyrylcholinesterase", "value": 28000, "unit": "nM"}]}, {"smiles": "COc1ccc2c3c1O[C@H]1C[C@@H](O)C=C[C@@]31CCN(CCCCOC1CCN(Cc3ccccc3)CC1)C2", "values": [{"measurement": "IC50", "setting": "Acetylcholinesterase", "value": 306, "unit": "nM"}, {"measurement": "IC50", "setting": "Butyrylcholinesterase", "value": 4300, "unit": "nM"}]}, {"smiles": "CCN(CC)Cc1ccc(OCCCCN2CC[C@@]34C=C[C@H](O)C[C@@H]3Oc3c(OC)ccc(c34)C2)cc1", "values": [{"measurement": "IC50", "setting": "Acetylcholinesterase", "value": 14.6, "unit": "nM"}, {"measurement": "IC50", "setting": "Butyrylcholinesterase", "value": 34000, "unit": "nM"}]}, {"smiles": "COc1ccc2c3c1O[C@H]1C[C@@H](O)C=C[C@@]31CCN(CCCCOc1cccc(C(C)N3CCOCC3)c1)C2", "note": "(some centres not stated)", "values": [{"measurement": "IC50", "setting": "Acetylcholinesterase", "value": 94.1, "unit": "nM"}, {"measurement": "IC50", "setting": "Butyrylcholinesterase", "value": 7100, "unit": "nM"}]}, {"smiles": "COc1ccc2c3c1O[C@H]1C[C@@H](O)C=C[C@@]31CCN(CCOc1ccc(CN3CCCCC3)cc1)C2", "values": [{"measurement": "IC50", "setting": "Acetylcholinesterase", "value": 24.5, "unit": "nM"}, {"measurement": "IC50", "setting": "Butyrylcholinesterase", "value": 21000, "unit": "nM"}]}, {"smiles": "COc1ccc2c3c1O[C@H]1C[C@@H](O)C=C[C@@]31CCN(CCCCCCOc1ccc(CN3CCOCC3)cc1)C2", "values": [{"measurement": "IC50", "setting": "Acetylcholinesterase", "value": 113, "unit": "nM"}, {"measurement": "IC50", "setting": "Butyrylcholinesterase", "value": 3900, "unit": "nM"}]}, {"smiles": "COc1ccc2c3c1O[C@H]1C[C@@H](O)C=C[C@@]31CCN(CCCCCCOc1ccc(C(=O)N3CCCC3)cc1)C2", "values": [{"measurement": "IC50", "setting": "Acetylcholinesterase", "value": 122, "unit": "nM"}, {"measurement": "IC50", "setting": "Butyrylcholinesterase", "value": 9400, "unit": "nM"}]}, {"smiles": "COc1ccc2c3c1O[C@H]1C[C@@H](O)C=C[C@@]31CCN(CCCCCCCCCCCCOc1ccc(CN3CCCCC3)cc1)C2", "values": [{"measurement": "IC50", "setting": "Acetylcholinesterase", "value": 58.1, "unit": "nM"}, {"measurement": "IC50", "setting": "Butyrylcholinesterase", "value": 1200, "unit": "nM"}]}, {"smiles": "CCN(CC)Cc1ccc(OCCCCCCN2CC[C@@]34C=C[C@H](O)C[C@@H]3Oc3c(OC)ccc(c34)C2)cc1", "values": [{"measurement": "IC50", "setting": "Acetylcholinesterase", "value": 8.86, "unit": "nM"}, {"measurement": "IC50", "setting": "Butyrylcholinesterase", "value": 41000, "unit": "nM"}]}, {"smiles": "COc1ccc2c3c1O[C@H]1C[C@@H](O)C=C[C@@]31CCN(CCCCCCOc1ccc(CN3CCCCC3)cc1)C2", "values": [{"measurement": "IC50", "setting": "Acetylcholinesterase", "value": 5.62, "unit": "nM"}, {"measurement": "IC50", "setting": "Butyrylcholinesterase", "value": 33000, "unit": "nM"}]}, {"smiles": "COc1ccc2c3c1O[C@H]1C[C@@H](O)C=C[C@@]31CCN(CCCCCCCCCOc1ccc(CN3CCCCC3)cc1)C2", "values": [{"measurement": "IC50", "setting": "Acetylcholinesterase", "value": 88.1, "unit": "nM"}, {"measurement": "IC50", "setting": "Butyrylcholinesterase", "value": 64000, "unit": "nM"}]}, {"smiles": "COc1ccc2c3c1O[C@H]1C[C@@H](O)C=C[C@@]31CCN(CCCCOc1ccc(C(=O)N3CCCC3)cc1)C2", "values": [{"measurement": "IC50", "setting": "Acetylcholinesterase", "value": 53.8, "unit": "nM"}, {"measurement": "IC50", "setting": "Butyrylcholinesterase", "value": 5600, "unit": "nM"}]}, {"smiles": "COc1ccc2c3c1O[C@H]1C[C@@H](O)C=C[C@@]31CCN(CCCCCCOc1cccc(C(C)N3CCOCC3)c1)C2", "note": "(some centres not stated)", "values": [{"measurement": "IC50", "setting": "Acetylcholinesterase", "value": 154, "unit": "nM"}, {"measurement": "IC50", "setting": "Butyrylcholinesterase", "value": 5800, "unit": "nM"}]}, {"smiles": "COc1ccc2c3c1O[C@H]1C[C@@H](O)C=C[C@@]31CCN(CCCCCOc1ccc(CN3CCCCC3)cc1)C2", "values": [{"measurement": "IC50", "setting": "Butyrylcholinesterase", "value": 29000, "unit": "nM"}]}, {"smiles": "COc1ccc2c3c1O[C@H]1C[C@@H](O)C=C[C@@]31CCN(CCCCCCCCCCOc1ccc(CN3CCCCC3)cc1)C2", "values": [{"measurement": "IC50", "setting": "Acetylcholinesterase", "value": 61.2, "unit": "nM"}, {"measurement": "IC50", "setting": "Butyrylcholinesterase", "value": 93000, "unit": "nM"}]}]}
